Assay results reported in patent US6068838A, “Purified multimerase” (Baxter Aktiengesellschaft, priority 1996, dated 2000).

What was measured:
BSA = experiment: Incubation of other proteins with the purified protease: BSA; type: biochemical; conditions: 0.2 mg/ml, undiluted barium-preincubated protease, 1 M urea, pH 8.0, 24 hours at 37° C.
calf skin collagen = experiment: Incubation of other proteins with the purified protease: collagen; type: biochemical; conditions: 0.4 mg/ml, undiluted barium-preincubated protease, 1 M urea, pH 8.0, 24 hours at 37° C.
[1] = Plasmin activity of the protease preparation with chromogenic substrate; type: biochemical; conditions: preparation after copper chelate affinity chromatography
Text: Thus, it was necessary to exclude the possibility that the protease preparation might effect a degradation of the von Willebrand factor multimers due to plasmin present in the preparation rather than as a result of the vWF-specific protease.

[2] = system: Recombinant vWF factor (r-vWF); experiment: Proteolytic fragmentation of recombinant vWF by the vWF protease preparation; type: biochemical
Description: The buffer system which had been sufficiently optimized for the instant assaying system thus comprised a dialysis Solution with 1 M urea in 5 mM Tris-HCl at pH 8. Full activation of the protease was achieved by preincubation for 5 minutes at 37° C. with 10 mM barium chloride. In a typical experiment, 50 μl activated protease solution and 100 μl substrate solution were carefully placed on a floating membrane, and incubated in a closed tube for 24 h in a dry oven at 37° C.
Recombinant vWF factor (r-vWF), produced according to FEBS-Letters 375, 259-262 (1995) with a concentration of 104 U (Ag)/ml in 20 mM TBS buffer, pH 8.3, was incubated as described above with the vWF protease preparation according to the invention.
Analysis of the r-vWF and its proteolytic degradation products was performed on 1% and 2% agarose gels, also according to the method of Ruggeri et al. (Blood 57 (1981), 1140-1143). The vWF multimers were made visible by immunoenzymatic staining according to Aihara et al. (Thromb. Haemostas. 55 (1986), 263-267). A rabbit-anti-von Willebrand factor-antiserum (from Dakopatts, Glostrup, Denmark) was used as the primary antibody, and an alkaline phosphatase-conjugated, affinity-purified goat-anti-rabbit IgG H+L-antibody (from Axell Accurate Chemical and Scientific Corp, Westburg, N.Y.) served as the secondary antibody. […]

vWF [3] = experiment: Polypeptide subunits and N-terminal sequence of vWF degraded by the purified protease; type: biochemical, human; conditions: from N-terminal sequences of 250, 170 and 140 kD bands
Description: For analysis of the amino acid composition and of amino acid sequence, the unreduced peak fraction of the protease and the reduced vWF fragments were dialyzed against 1 mM EDTA, were lyophilized, and were redissolved in 1/50 of the original volume before SDS-PAGE. The HMW protein bands were electrotransferred from the gel to a PVDF (polyvinyliden-difluoride) membrane (BioRad) for 6 hours at 26 V and 0.4 A, using 0.05% SDS, 10% methanol, 0.05 M boric acid, pH 9.0, as transfer buffer. After transfer, the membrane was stained with Coomassie-Blue in 40% methanol, destained in 40% methanol and 10% acetic acid, and air-dried. The excised bands were transferred to the blot cartridge of the Applied Biosystems Model 477A sequenator, which was equipped with on-line high-performance liquid chromatography for analysis of phenylthiohydantoin derivatives, For analysis of amino acid compositions, the protein bands were hydrolyzed in the gas phase over 6N HCl for 22 hours at 110° C. The amino acids were extracted from the PVDF membrane with 70% 0.1 N HCl/30% methanol and were determined by high-performance liquid chromatography as phenylthiocarbamyl derivatives. The amino acid composition of the unreduced protein band coeluted from the Sephacryl S-300 HR column together with the protease activity is shown in Table 1. […]

vWF from cryoprecipitate = experiment: Degradation of plasmatic vWF (cryoprecipitate, highest molecular weight multimers) by vWF protease; type: biochemical, human
[4] = Stability of the protease in solution; type: physicochemical
Text: In the absence of these ions the protease was quite stable in solution, and thus it was possible to purify the enzyme by chromatographic procedures taking place for several days at room temperature.

human fibrinogen = experiment: Incubation of other proteins with the purified protease: fibrinogen; type: biochemical; conditions: 0.4 mg/ml, undiluted barium-preincubated protease, 1 M urea, pH 8.0, 24 hours at 37° C.
[5] = Stability of purified vWF fractions on dialysis incubation; type: physicochemical; conditions: fractions 12 to 20, 24 h dialysis incubation at 37° C., absence of inhibitors, citrate/NaCl buffer or 1 M urea buffer
Description: vWF was purified by gal filtration of human cryoprecipitate, obtained from 1 l citrated plasma, an a 2.6×35-cm column of Sepharose CL-2B (Pharmacia, Uppsala, Sweden). Elution was performed with 0.13 M sodium chloride, 0.01 M citrate, 0.01 M Tris-HCl, pH 7.4. Fractions of 6 ml were collected at a flow rate of 24 ml/h. vWF antigen was measured by ELISA by using polyclonal rabbit antiserum against human vWF (RAHu/FVIII, from Nordic (Tillburg, The Netherlands), peroxidase-labeled rabbit antihuman-vWF, mouse monoclonal antibody against rabbit IgG (M737), and the kit for immunostaining (K670) (all from Dako (Glostrup, Denmark)), according to the instructions included with the kit.
SDS agarose gels of these assays are illustrated in FIG. 2 (panels A and B).

plasmatic vWF = experiment: Degradation of plasmatic vWF (cryoprecipitate) with plasmin; type: biochemical, human; conditions: overnight digestion
vWF [6] = conditions: after cleavage with plasmin; cited from earlier work
r-vWF = experiment: Degradation of r-vWF with plasmin; type: biochemical

protease: von Willebrand factor cleaving protease purified from human plasma, named multimerase; converts singlet vWF to satellite structure
degradation of BSA (BSA): no degradation | degradation of calf skin collagen (calf skin collagen): no degradation | plasmin activity [1]: 0.2 U/ml | multimer pattern of r-vWF after incubation with protease ([2]; after 3 h): loss of the highest multimers | multimer pattern of r-vWF after incubation with protease ([2]; after 20 hours): oligomers and multimers could no longer be detected | peptide bond of vWF cleaved (vWF [3]): 842Tyr-843Met | multimer pattern of cryoprecipitate vWF on incubation with vWF protease (vWF from cryoprecipitate; cryoprecipitate): loss of multimers could be observed over time | multimer pattern of highest molecular weight vWF multimers preparation with vWF protease (vWF from cryoprecipitate; laboratory preparation 10 U (Ag)/ml in 20 mm TBS buffer, pH 8.3): clear shift towards lower molecular weight multimers | stability of the protease in solution ([4]; in the absence of calcium, strontium and barium ions): quite stable | protease activity after prolonged preincubation ([4]; prolonged preincubation with calcium, strontium and barium, even at physiological salt and without urea): loss of protease activity | degradation of human fibrinogen (human fibrinogen): no degradation

vWF: vWF purified by gel filtration of human cryoprecipitate, fractions 12 to 20
stability of vWF (multimer pattern) [5]: very stable

B1: plasmin: human plasmin from Chromogenics, serine protease used as comparison (protein, UniProt P00747 20-580; P00747 581-810, looked up)
Plasmin heavy chain A: EPLDDYVNTQGASLFSVTKKQLGAGSIEECAAKCEEDEEFTCRAFQYHSKEQQCVIMAENRKSSIIIRMRDVVLFEKKVYLSECKTGNGKNYRGTMSKTKNGITCQKWSSTSPHRPRFSPATHPSEGLEENYCRNPDNDPQGPWCYTTDPEKRYDYCDILECEEECMHCSGENYDGKISKTMSGLECQAWDSQSPHAHGYIPSKFPNKNLKKNYCRNPDRELRPWCFTTDPNKRWELCDIPRCTTPPPSSGPTYQCLKGTGENYRGNVAVTVSGHTCQHWSAQTPHTHNRTPENFPCKNLDENYCRNPDGKRAPWCHTTNSQVRWEYCKIPSCDSSPVSTEQLAPTAPPELTPVVQDCYHGDGQSYRGTSSTTTTGKKCQSWSSMTPHRHQKTPENYPNAGLTMNYCRNPDADKGPWCFTTDPSVRWEYCNLKKCSGTEASVVAPPPVVLLPDVETPSEEDCMFGNGKGYRGKRATTVTGTPCQDWAAQEPHRHSIFTPETNPRAGLEKNYCRNPDGDVGGPWCYTTNPRKLYDYCDVPQCAAPSFDCGKPQVEPKKCPGR
Plasmin light chain B: VVGGCVAHPHSWPWQVSLRTRFGMHFCGGTLISPEWVLTAAHCLEKSPRPSSYKVILGAHQEVNLEPHVQEIEVSRLFLEPTRKDIALLKLSSPAVITDKVIPACLPSPNYVVADRTECFITGWGETQGTFGAGLLKEAQLPVIENKVCNRYEFLNGRVQSTELCAGHLAGGTDSCQGDSGGPLVCFEKDKYILQGVTSWGLGCARPNKPGVYVRVSRFVTWIEGVMRNN
modifications: Plasmin
notes: human plasmin from Chromogenics, serine protease used as comparison
degradation of plasmatic vWF (plasmatic vWF): completely degraded | platelet agglutinating activity (ristocetin cofactor) retained by high molecular weight core region of vWF (vWF [6]): about 70% | degradation of recombinant vWF (r-vWF; overnight digestion): completely degraded | degradation of r-vWF multimers (kinetic examination) (r-vWF; plasmin 0.2 U/ml admixed 1:1 with r-vWF, 37° C.): successive degradation of the multimers over 29 h | degradation of r-vWF (r-vWF; plasmin concentration reduced to 1:10): degraded more slowly
